Measured values published in US20260284050A1, “ACTIVATORS OF THE COLD STRESS RESPONSE AND USES THEREOF” (priority 2023, published 2026).
Like-named read-outs stand apart in the source and are kept apart here. Where a SMILES comes first, the peptide text is derived from it. The star is where a group is joined. Cbz = O=C(OCc1ccccc1)*

How the values were obtained:
SP1+MCRE-MHI = experiment: cells; conditions: HEK293FT; for fold induction at 20 µM: Homo sapiens
Protocol: Briefly, Lipofectamine 3000 (Thermofisher Scientific, L3000015) was used to transfect the SP1+MCRE indicator into the HEK293FT cell line. 24 h after transfection, 30000 cells were plated into each well of a 96 well black well plate. 48 h after transfection the cells were exposed to FDA Approved Drug Screening Library (L1300-Z298012) via the High Throughput Screening Services (ChemCore) at Johns Hopkins University. Each drug was exposed in 20 μM concentration. Total well GFP was read with the ClarioStarPlus Plate Reader (settings: gain 1500, 470-15 excitation and emission 515-20 at focal height 2.6) 16, 28, and 40 h after exposure of the library. Increase in fluorescence was calculated with dividing GFP reads from positive control at each time point with GFP reads of each well exposed to drug at the same timepoint for wells in the same lane. Compounds were validated in same concentration (20 μM). For validation cells were exposed to the drug for 24 hours, and evaluated by FACS as described in the section Transfection of indicators into cell lines.
To explore this in an unbiased manner, a systematic library drug screen (1953 FDA-approved inhibitors) was performed using HEK293FT cells transfected with the SP1+MCRE-MHI. […] Cells transfected with said MHI were exposed to the drug library (20 μM concentration) and fluorescence was measured after 16-, 28- and 40-hours of drug exposure. Drugs that could increase the indicator's fluorescence at least >3.75 times at one of the time points were further investigated.

SP1-MHI = experiment: FACS validation in HEK293 cells with Cas9 and SP1-MHI; format: cell-based, human; conditions: 20 μM
Protocol: HEK293 cell lines were transfected when 70-90% confluency was reached. Either Lipofectamine™ 2000 or 3000 (Thermofisher Scientific, #11668027, #L3000015) was used according to the manufacture's protocol. The fluorescence of the indicators was measured via FACS up to 48 hours after transfection. FACS data were analysed with the FlowJo Software, where gates were created on living cells, single cells, GFP positive cells and the fluorescence for that population was measured.
Each drug was exposed in 20 μM concentration. […] Compounds were validated in same concentration (20 μM).
HEK293 cells with Cas9 and SP1-MHI were individually exposed to each compound (20 μM) for 16 hours at either 32° C. or 37° C. followed by FACS. […] (Entacapone, Poziotinib), indicating activation of response with drug without hypothermic stimulus.

SP1, RBM3 and CIRBP = experiment: Western blot of SP1, RBM3 and CIRBP after compound exposure; format: cell-based, human; conditions: 24 h exposure at either 32° C. or 37° C.
Protocol: (§1) Cells were washed with PBS and then lysed for 30 min on ice in RIPA buffer (50 mM Tris HCl ph8, 150 mM NaCl, 1% NP-40, 1% Sodium deoxycholate, 0.1% SDS, 2 mM EDTA, phosphatase inhibitor (Cell signaling, Cat. #5870S), and Halt™ Protease Inhibitor Cocktail (Thermo Fisher, Cat. #78437). The lysates were centrifuged at 16,000×g for 20 minutes at 4° C. and the supernatants were collected. The supernatants were diluted with 4× loading buffer (Li-cor) and heated at 95° C. for 5 mins. The protein concentration was measured using Pierce™ BCA Assay Kit (Thermo Fisher). 20-30 μg protein samples were loaded into gels and separated by SDS-PAGE. They were transferred to polyvinylidene fluoride (PVDF) membranes and blocked in 5% bovine serum albumin in Tris-buffered saline with Tween 20 for 1 hour. Primary antibodies (rabbit anti-CIRBP, 1:2000, Cat. #10209-2-AP, Proteintech; rabbit anti-RBM3, 1:1000, CAT. #14363-1-AP, Proteintech; rabbit anti-SP1 1:1000, CAT. #21962-1-AP, Proteintech; mouse anti-Lamin 1, 1:5000, CAT. #66095-1-Ig, Proteintech; rabbit anti-SMYD5, 1:1000, in-house; rabbit anti-Phospho-SP1, 1:1000, CAT. #PA5-104771, Proteintech) were applied to respective membranes after washing, and incubated at 4° C. overnight. […] After washing, the protein bands were visualized on the Odyssey® CLx Infrared Imaging System and quantified by Image J software.

HEK293 cells = experiment: Cell cycle phase evaluation of HEK293 cells; format: cell-based, human; conditions: for cell cycle arrest: HEK293 cells exposed to compound
Protocol: To exclude the possibility of cell cycle arrest or increased apoptosis, cell cycle phase of HEK293 cells exposed to Pozitinib and Entacapone was evaluated. […] Similarly, there were no signs of activation of the MHIs after exposure to an apoptotic agent.

SMYD5 = SMYD5 levels at 32° C. with proteasome inhibition; format: cell-based, human; conditions: 6 hour exposure
Protocol: as §1, with “software. […]” for “software.”

CIRBP = experiment: RT-qPCR of endogenous CIRBP relative to GAPDH; format: cell-based, human; conditions: 16 h exposure at 37° C.
Protocol: (§2) Total RNA from cells incubated at 32° C. or 37° C. was isolated, using Direct-zol™ RNA Microprep (Zymo Research, R2062), according to the manufacturer's instructions. The concentration of RNA was measured by NanoDrop™ One Microvolume UV-Vis Spectrophotometer (Thermo Scientificv™) followed by cDNA synthesis with High-Capacity cDNA Reverse Transcription Kit (Applied Biosystems™, 4368814) on MiniAmp™ Thermal Cycler (Applied Biosystems™). qPCR was performed using Luna® Universal qPCR Master Mix on CFX384™ Real-Time PCR Detection System (Bio-Rad). Each biological replicate of the RT-qPCR assay in this study was carried out in technical triplicates. Any technical replicate that deviated from other replicates by 0.4 cycle threshold (Ct) was removed from calculations of average Ct values. The primers used in this study are as follows: […]
(§3) To evaluate effects on the endogenous loci (CIRBP, RBM3 and SP1) real time quantitative polymerase chain reaction (RT-qPCR) was carried out after 16 h of either 32° C. or 37° C.—with or without the exposure to the compound during that time.

RBM3 = experiment: RT-qPCR of endogenous RBM3 relative to GAPDH; format: cell-based, human; conditions: 16 h exposure at 37° C.
Protocol: as §2, §3

SP1 = experiment: RT-qPCR of endogenous SP1 relative to GAPDH; format: cell-based, human; conditions: 16 h exposure at 37° C.
Protocol: as §2, §3

[1] = 40 h, read-out: increase in fluorescence of the SP1+MCRE-MHI

Which fold induction at 20 µM (SP1+MCRE-MHI; [1]) does the source give for `CN(C)C/C=C/C(=O)Nc1cc2c(Nc3ccc(F)c(Cl)c3)ncnc2cc1O[C@H]1CCOC1` [Afatinib] here?
The fold induction at 20 µM was over 3.75.

`C[C@@H](NCCCc1cccc(C(F)(F)F)c1)c1cccc2ccccc12` [Cincalcet] was tested. Which “increase in fluorescence of the SP1+MCRE-MHI” value (SP1+MCRE-MHI; 20 μM, at one of the time points (16, 28, 40 h of drug exposure)) did it give?
The value was over 3.75 times.

Which fold induction at 20 µM (SP1+MCRE-MHI; [1]) does the source give for `Cc1nc(Nc2ncc(C(=O)Nc3c(C)cccc3Cl)s2)cc(N2CCN(CCO)CC2)n1` [Dasatinib] here?
Its fold induction at 20 µM is over 3.75.

For `CCN(CC)C(=O)/C(C#N)=C/c1cc(O)c(O)c([N+](=O)[O-])c1` [Entacapone], which “mean fluorescence of SP1-MHI by FACS” value (SP1-MHI; 16 hours at 32° C.) is on record?
Its value is “significantly (P<0.01) potentiate fluorescence levels”.

And the “mean fluorescence of SP1-MHI by FACS” value (SP1-MHI; 16 hours at 37° C.)?
Its value is “significantly (P<0.001, P<0.0001) increased fluorescence”.

What about the fold induction at 20 µM (SP1+MCRE-MHI; [1]) of the same molecule?
The fold induction at 20 µM was over 3.75.

And the “Western blot of SP1, RBM3 and CIRBP with versus without compound” value (SP1, RBM3 and CIRBP)?
Its value is “significant difference (P<0.05”.

And the “percentage of total cells in the S phase of cell cycle” value (HEK293 cells; 16 hours exposure at both 32° C. and 37° C.)?
The value was “slight increase”.

What about the cell cycle arrest (HEK293 cells) of the same molecule?
The cell cycle arrest was “Any signs of cell cycle arrest”.

With `CC[C@H]1OC(=O)[C@H](C)[C@@H](O[C@H]2C[C@@](C)(OC)[C@@H](O)[C@H](C)O2)[C@H](C)[C@@H](O[C@@H]2O[C@H](C)C[C@H](N(C)C)[C@H]2O)[C@](C)(O)C[C@@H](C)C(=O)[C@H](C)[C@@H](O)[C@]1(C)O` [Erythromycin] as the molecule, how does the fold induction at 20 µM (SP1+MCRE-MHI; [1]) read?
Its fold induction at 20 µM is over 3.75.

`CS(=O)(=O)CCNCc1ccc(-c2ccc3ncnc(Nc4ccc(OCc5cccc(F)c5)c(Cl)c4)c3c2)o1` [Lapatinib] was tested. Which fold induction at 20 µM (SP1+MCRE-MHI; [1]) did it give?
Its fold induction at 20 µM is over 3.75.

How did the SMYD5 levels (SMYD5) turn out when `CC(C)C[C@@H](C=O)NC(=O)[C@H](CC(C)C)NC(=O)[C@H](CC(C)C)NC(=O)OCc1ccccc1` [MG132] (Cbz-Leu-Leu-Leu-aldehyde) was run?
The SMYD5 levels was “increases levels of SMYD5 at 32 °C to levels seen at 37 °C”.

Which fold induction at 20 µM (SP1+MCRE-MHI; [1]) does the source give for `C=CCN1CC[C@]23c4c5ccc(O)c4O[C@H]2C(=O)CC[C@@]3(O)[C@H]1C5` [Naloxone] here?
The fold induction at 20 µM was over 3.75.

How did the fold induction at 20 µM (SP1+MCRE-MHI; [1]) turn out when `Cc1[nH]c(/C=C2\C(=O)Nc3ccccc32)c(C)c1CCC(=O)O` [Orantinib] was run?
The fold induction at 20 µM was over 3.75.

`C=CC(=O)N1CCC(Oc2cc3c(Nc4ccc(Cl)c(Cl)c4F)ncnc3cc2OC)CC1` [Poziotinib] was tested. Which “CIRBP mRNA expression” value (CIRBP) did it give?
Its value is “trend towards increase”.

What about the “mean fluorescence of SP1-MHI by FACS” value (SP1-MHI; 16 hours at 37° C.) of the same molecule?
Its value is “significantly (P<0.001, P<0.0001) increased fluorescence”.

What about the “RBM3 mRNA expression” value (RBM3) of the same molecule?
The value was “significantly (P<0.05) increased”.

And the fold induction at 20 µM (SP1+MCRE-MHI; [1])?
The fold induction at 20 µM was over 3.75.

And the “SP1 mRNA expression” value (SP1)?
Its value is “trend towards increase”.

What about the cell cycle arrest (HEK293 cells) of the same molecule?
Its cell cycle arrest is “Any signs of cell cycle arrest”.

Which fold induction at 20 µM (SP1+MCRE-MHI; [1]) does the source give for `C=CC(=O)Nc1cccc(Nc2nc(Nc3ccc(N4CCN(C(C)=O)CC4)cc3OC)ncc2C(F)(F)F)c1` [Rociletinib] here?
Its fold induction at 20 µM is over 3.75.

`CC/C(=C(\c1ccccc1)c1ccc(OCCN(C)C)cc1)c1ccccc1` [Tamoxifen] was tested. Which fold induction at 20 µM (SP1+MCRE-MHI; [1]) did it give?
The fold induction at 20 µM was over 3.75.

What does the source list for `Cc1ccc(C(=O)c2cc(O)c(O)c([N+](=O)[O-])c2)cc1` [Tolcapone]?
fold induction at 20 µM (SP1+MCRE-MHI; 16 h, read-out: relative increase of fluorescence of the SP1+MCRE-MHI compared to control): 1.8; fold induction at 20 µM (SP1+MCRE-MHI; 28 h, read-out: relative increase of fluorescence of the SP1+MCRE-MHI compared to control): 1.7; fold induction at 20 µM (SP1+MCRE-MHI; 40 h, read-out: relative increase of fluorescence of the SP1+MCRE-MHI compared to control): 1.9
